The target of one assay is T1, 14-3-3γ/SOS1 complex (Homo sapiens, UniProt P61981).
T1 construct: made in house; host or cells: E. coli NiCo21 (DE3)
T1 sequence (P61981 1-247): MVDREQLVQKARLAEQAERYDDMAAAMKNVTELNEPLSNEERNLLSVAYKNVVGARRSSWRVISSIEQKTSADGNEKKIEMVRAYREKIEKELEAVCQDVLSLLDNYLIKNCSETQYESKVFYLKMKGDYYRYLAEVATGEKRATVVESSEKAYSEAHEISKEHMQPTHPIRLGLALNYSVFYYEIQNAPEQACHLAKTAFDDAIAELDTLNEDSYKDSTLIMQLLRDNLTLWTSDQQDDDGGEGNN
Description: FA selectivity screen, SOS1 client peptide. The class given is binding. The conditions noted are these: 100 μM compound, SOS1 peptide (+1 Ala). How it is done:
(§1) Drugging the hub protein 14-3-3 raises the challenge of selectivity, given that 14-3-3 binds several hundred phosphoprotein partners (Figure 4a).[54] We hypothesized that the interplay of chemical reactivity, the topology, and functionality of the composite binding pocket shaped by 14-3-3 and the interaction partner drives selective stabilization of the 14-3-3/ERRγ complex.[53] To validate selectivity, molecular locks 5 and 10 were tested against a panel of nine 14-3-3 client peptides in an FA assay, and the SF100 was determined for each 14-3-3 PPI (Figure 4b and Figures S18–S20). This client panel contained a diverse representation of 14-3-3 binding proteins, differing for example in size and hydrophobicity of the +1 amino acid. Importantly, clients PKR and RND3, each containing a +1 Cys, were included in the panel.
(§2) Figure S20. KD and SF100 plot – selectivity screen. […]
(§3) nine different client peptides in presence of DMSO (negative control) or 100 µM of compound 1, 5 or 10 (based on binding curves in Figure S19). […]
(§4) A pPROEX HTb expression vector encoding the human 14-3-3 protein gamma (14-3-3γ) with a N-terminal his6-tag was transformed by heat shock into NiCo21 (DE3) competent cells. […] Finally, the protein was concentrated to ∼60 mg/mL, analyzed Q-Tof LC/MS, and aliquots were flash-frozen for storage at −80 °C. […]

A further assay concerns the target T2, 14-3-3γ/PIN1 complex (Homo sapiens, UniProt P61981).
T2 construct: made in house; host or cells: E. coli NiCo21 (DE3)
T2 sequence (P61981 1-247): T1 sequence (P61981 1-247)
Description: FA selectivity screen, PIN1 client peptide. The class given is binding. Particulars: 100 μM compound, PIN1 peptide (+1 Trp). How it is done: as §1, §2, §3, §4

For the molecule `CN(C)CCSSCCN(C)C(=O)c1ccc(C=O)c(F)c1` [compound 5], the “off-target effect in client screen” value at 14-3-3γ/SOS1 complex and on 14-3-3γ/PIN1 complex was “minor off-target effects” throughout.

Values taken from article PMC10064330, “Reversible Dual-Covalent Molecular Locking of the 14-3-3/ERRγ Protein–Protein Interaction as a Molecular Glue Drug Discovery Approach” (Journal of the American Chemical Society, 2023).
